Among the data in patent publication US20080139546A1, “Tetrahydroquinoline, indoline, and related aniline derivatives of heterocycle-fused benzodioxan methylamines” (Wyeth, priority 2006, published 2008) are Ki, IC50 and EC50 values, retold here.

For experiment [1], the target named is T1, Human 5-HT1A Receptor (Homo sapiens, UniProt P08908).
T1 construct: expressed in transfected cells; host or cells: CHO cells (Chinese hamster ovary), stably transfected
T1 sequence (P08908 1-422): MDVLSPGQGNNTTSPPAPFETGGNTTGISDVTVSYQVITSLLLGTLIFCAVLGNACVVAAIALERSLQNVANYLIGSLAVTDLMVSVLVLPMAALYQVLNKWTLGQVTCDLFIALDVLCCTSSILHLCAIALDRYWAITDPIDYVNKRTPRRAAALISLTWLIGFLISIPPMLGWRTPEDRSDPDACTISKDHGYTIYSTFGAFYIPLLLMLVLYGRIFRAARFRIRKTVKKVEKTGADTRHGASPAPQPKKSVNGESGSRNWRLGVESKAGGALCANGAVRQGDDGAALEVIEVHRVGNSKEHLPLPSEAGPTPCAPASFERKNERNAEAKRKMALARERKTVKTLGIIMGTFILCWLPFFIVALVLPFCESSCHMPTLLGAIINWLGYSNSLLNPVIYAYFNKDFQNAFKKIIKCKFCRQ
In words: 8-OH-DPAT binding, human 5-HT1A receptor cell line (displacement of [3H]-OHDPAT, stably transfected CHO cells). To be noted: [3H]-OHDPAT 1.5 nM, read-out: h5HT1A Affinity Ki (nM) (Example 17). Here is the method:
Affinity for the serotonin 5-HT1A receptor was established by testing each compound's ability to displace [^3H]-OHDPAT (dipropylaminotetralin) from the 5-HT1A serotonin receptor following a modification of the procedure of Hall et al., J. Neurochem. 44:1685-1696 (1985). Stably transfected Chinese hamster ovary (CHO) cells were plated and grown in Dulbecco's Modified Eagle's Medium (DMEM) containing 10% heat inactivated fetal bovine serum (FBS) and non-essential amino acids. Cells were scraped off the plate, transferred to centrifuge tubes, and washed twice by centrifugation (2000 rpm for 10 minutes at 4° C.) in buffer (50 mM Tris, pH 7.5). The resulting pellets were aliquoted and stored at −80° C. On the day of assay, the cells were thawed on ice, and re-suspended in buffer. The binding assay was performed in a 96-well microtiter plate in a total volume of about 250 μL. Non-specific binding was determined in the presence of 10 μM 5-HT; the final radio ligand concentration was 1.5 nM. Following a 30 minute incubation at room temperature, the reaction was terminated by the addition of ice cold buffer and rapid filtration through a GF/B filter presoaked for 30 minutes in 0.5% polyethyleneimine (PEI). Compounds were initially tested in a single point assay to determine percent inhibition at 1 μM, 0.1 μM, and 0.01 μM. Subsequently, Ki values were determined for compounds defined to be active. Percent inhibition Ki was determined by RFComp (Lundon Software, Chagrin Falls, Ohio), with serotonin and 8-OH-DPAT as the reference compounds.
High affinity for the receptor is evidence of a compound's ability to directly modulate activity at the 5-HT1A receptor.

Another experiment deals with T2, Human 5-HT Transporter (Homo sapiens, UniProt P31645).
T2 construct: endogenous in cells; host or cells: Jar cells (human carcinoma cell line), treated with staurosporine
The experiment in a line: Inhibition of 3H-5-HT uptake by Jar cells possessing the human 5-HT transporter. The class given is cell-based. To be noted: Jar cells treated with staurosporine, read-out: 5HT Uptake h5HT-T IC50 (nM) (Example 20). The method, then: [Staurosporine greatly increases the expression of the 5-HT-Transporter.] On the day of assay, vehicle, excess of fluoxetine, or test compound was added to various wells on the plate. ^3H-5-HT was then aliquoted into all wells and the samples were incubated at 37° C. for 5 minutes. The wells were then washed with ice cold 50 mM Tris HCl (pH 7.4) buffer and aspirated to remove free ^3H-5-HT. 25 μL 0.25 M NaOH was then added to each well to lyse the cells and 75 μL scintillation cocktail (Microscint™ 20) was added prior to quantitation on a Packard TopCount® machine. Tubes with vehicle represent total possible uptake, radioactivity counted in tubes with excess fluoxetine represent nonspecific binding/uptake and were subtracted from the total possible uptake to give total possible specific uptake. This nonspecific binding (usual low in number) was then subtracted from the counts obtained in wells with various test compounds (or different concentrations of a test compound) resulting in uptake in the presence of drug. Specific uptake was then expressed as a percent of control values and was analyzed using nonlinear regression analysis (Prizm) to determine IC50 values. If the compound was active in inhibiting 5-HT uptake, its counts will be close to that obtained with fluoxetine.
This blockade, in vivo, would be expected to result in an increase in extracellular 5-HT concentrations.

Another experiment concerns the target T3, serotonin transporter (Rattus norvegicus, UniProt P31652).
T3 construct: frontal cortical membranes prepared from male Sprague Dawley rats; from tissue; host or cells: rat frontal cortex membranes (male Sprague Dawley)
The experiment in a line: 3H-paroxetine binding to rat frontal cortical membranes, affinity for the serotonin transporter. To be noted: 3H-paroxetine 0.1 nM, male Sprague Dawley rat frontal cortical membranes; read-out: 5HT Uptake r5HT-T Ki (nM) (Example 18). The method, then: A protocol similar to that used by Cheetham et al. (Neuropharmacol. 32:737-743, 1993) was used to determine the affinity of compounds for the serotonin transporter (i.e., by determining the relative ability of a compound to displace ^3H-paroxetine from male rat frontal cortical membranes). Briefly, frontal cortical membranes prepared from male Sprague Dawley rats were incubated with ^3H-paroxetine (0.1 nM) for 60 minutes at 25° C. All tubes also contained either vehicle, test compound (one to eight concentrations), or a saturating concentration of fluoxetine (10 μM) to define […]. All reactions were terminated by the addition of ice cold Tris buffer followed by rapid filtration using a Tom Tech filtration device to separate bound from free ^3H-paroxetine. Bound radioactivity was quantitated using a Wallac 1205 Beta Plate® counter. Nonlinear regression analysis was used to determine IC50 values which were converted to Ki values using the method of Cheng and Prusoff (Biochem. Pharmacol. 22: 3099-3108, 1973); […].
This affinity translates to the blockade of 5-HT uptake, i.e., the ability of a compound increase synaptic 5-HT levels and to act like an SSRI.

The target in experiment [2] is T1, Human 5-HT1A Receptor. The experiment in a line: cAMP radioimmunoassay (RIA) in human 5-HT1A receptor cell line, inhibition of forskolin stimulated cAMP. The class given is cell-based. The settings on record: forskolin (1 μM) stimulated cAMP, stably transfected CHO cells; read-out: h5HT1A cAMP EC50 (nM) (Example 19). The method, then: Certain effects of 5-HT (e.g., certain effects mediated by the interaction of 5-HT with the 5-HT1A receptor) are mediated by cAMP. To test the ability of compounds described herein to modulate cAMP, a radioimmunoassay (RIA) method was used. Briefly, stably transfected CHO cells were grown in DMEM containing 10% heat inactivated FBS and non-essential amino acids. The cells were plated at a density of 10^6 cells per well in a 96-well plate and incubated for 2 days in a CO2 incubator. On the second day, the medium was replaced with 0.1 ml Krebs and incubated 15 minutes at 37° C. The medium was then replaced with Krebs buffer containing 500 μM isobutylmethylxanthine (IBMX) and incubated for approximately 5 minutes at 37° C. Wells were treated with forskolin (1 μM final concentration) followed immediately by test compound (0.1 and 1 μM for the initial screen) and incubated for an additional 10 minutes at 37° C. The reaction was terminated by removal of the medium and the addition of 0.5 ml ice cold assay buffer (supplied in the RIA kit). Plates were stored at −20° C. prior to assessment of cAMP formation by RIA. The cAMP kit was obtained from Amersham (Piscataway, N.J.) and the RIA was performed as per the kit instructions. In the initial screen, percent inhibition of forskolin stimulated cAMP was measured. […] These compounds behaved as either full agonists or partial agonists. 5-HT, BMY 7378, buspirone, and 8-OH-DPAT were used as reference compounds.
All compounds tested inhibited the forskolin-stimulated increase in […].

T2 sequence (P31645 whole entry): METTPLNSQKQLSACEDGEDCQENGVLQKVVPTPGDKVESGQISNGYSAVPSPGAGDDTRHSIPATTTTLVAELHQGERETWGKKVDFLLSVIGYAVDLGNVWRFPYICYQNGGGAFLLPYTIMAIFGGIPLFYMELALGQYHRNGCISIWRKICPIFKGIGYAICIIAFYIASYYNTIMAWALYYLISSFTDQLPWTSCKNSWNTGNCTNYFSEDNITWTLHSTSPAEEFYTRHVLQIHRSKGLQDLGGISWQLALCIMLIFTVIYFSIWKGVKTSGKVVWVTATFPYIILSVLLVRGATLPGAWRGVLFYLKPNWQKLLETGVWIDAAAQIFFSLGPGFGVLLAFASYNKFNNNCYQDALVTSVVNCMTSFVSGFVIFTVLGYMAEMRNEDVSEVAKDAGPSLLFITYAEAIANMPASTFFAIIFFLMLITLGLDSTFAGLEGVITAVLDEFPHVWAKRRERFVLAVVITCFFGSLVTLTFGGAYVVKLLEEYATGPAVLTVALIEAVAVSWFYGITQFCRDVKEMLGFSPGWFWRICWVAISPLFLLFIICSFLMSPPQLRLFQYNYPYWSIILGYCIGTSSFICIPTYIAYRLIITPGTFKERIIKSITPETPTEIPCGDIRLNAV
T3 sequence (P31652 whole entry): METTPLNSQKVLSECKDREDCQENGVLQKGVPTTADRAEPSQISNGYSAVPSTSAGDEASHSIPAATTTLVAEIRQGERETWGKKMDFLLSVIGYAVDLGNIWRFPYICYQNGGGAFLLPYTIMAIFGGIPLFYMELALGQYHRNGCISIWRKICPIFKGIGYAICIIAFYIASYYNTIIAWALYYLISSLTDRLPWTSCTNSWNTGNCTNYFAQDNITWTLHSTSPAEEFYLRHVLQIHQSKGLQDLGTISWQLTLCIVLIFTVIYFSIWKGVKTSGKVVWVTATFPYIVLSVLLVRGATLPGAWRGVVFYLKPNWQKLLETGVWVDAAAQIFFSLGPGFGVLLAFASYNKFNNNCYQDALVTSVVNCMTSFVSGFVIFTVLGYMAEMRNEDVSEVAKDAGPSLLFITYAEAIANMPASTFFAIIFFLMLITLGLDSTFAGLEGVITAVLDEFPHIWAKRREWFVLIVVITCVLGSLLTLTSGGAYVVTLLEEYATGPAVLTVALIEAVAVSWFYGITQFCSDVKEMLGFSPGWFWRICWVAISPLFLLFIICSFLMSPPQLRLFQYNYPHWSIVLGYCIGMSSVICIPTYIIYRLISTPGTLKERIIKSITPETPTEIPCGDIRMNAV

As for `Cc1ccc2c3c(ccc2n1)OC[C@H](CNCCCN1CCCc2ccccc21)O3` [Example 1, 3-(3,4-dihydroquinolin-1(2H)-yl)-N-{[(2S)-8-methyl-2,3-dihydro[1,4]dioxino[2,3-f]quinolin-2-yl]methyl}propan-1-amine], the inhibition constant (Ki) (usually the equilibrium dissociation constant of an inhibitor or competing ligand from its target) came to 2.45 nM on Human 5-HT1A Receptor [1] and 13 nM on serotonin transporter. Further, on Human 5-HT Transporter, the half-inhibitory concentration (IC50) (in general, the concentration needed to halve the response being measured) is 150 nM. Also, at Human 5-HT1A Receptor [2], the 50% effective concentration (EC50) (usually the concentration that produces a half-maximal response) stood at 1.58 nM.
With `Cc1ccc2c3c(ccc2n1)OC[C@H](CNCCCN1CCc2cc(F)ccc21)O3` [Example 2, 3-(5-fluoro-2,3-dihydro-1H-indol-1-yl)-N-{[(2S)-8-methyl-2,3-dihydro[1,4]dioxino[2,3-f]quinolin-2-yl]methyl}propan-1-amine], the values for the Ki on Human 5-HT1A Receptor [1] and at serotonin transporter were 0.6 nM and 10.2 nM, respectively. Also, the EC50 at Human 5-HT1A Receptor [2] is 3.76 nM.
On to `Cc1ccc2c3c(ccc2n1)OC[C@H](CNCCCN1CCc2ccc(F)cc21)O3` [Example 3, 3-(6-fluoro-2,3-dihydro-1H-indol-1-yl)-N-{[(2S)-8-methyl-2,3-dihydro[1,4]dioxino[2,3-f]quinolin-2-yl]methyl}propan-1-amine], for which the Ki on Human 5-HT1A Receptor [1] turned out to be 0.35 nM; on serotonin transporter it was 2.8 nM. Besides, the IC50 at Human 5-HT Transporter turned out to be 107 nM. Further, on Human 5-HT1A Receptor [2], the EC50 is 1.88 nM.
As for `Cc1ccc2c3c(ccc2n1)OC[C@H](CNCCCN1CCCc2ccc(F)cc21)O3` [Example 4, 3-(7-fluoro-3,4-dihydroquinolin-1(2H)-yl)-N-{[(2S)-8-methyl-2,3-dihydro[1,4]dioxino[2,3-f]quinolin-2-yl]methyl}propan-1-amine], the Ki is 0.27 nM at Human 5-HT1A Receptor [1] and 7.7 nM on serotonin transporter. Also, the 50% inhibitory concentration (IC50) on Human 5-HT Transporter worked out at 32.9 nM. Further, the EC50 at Human 5-HT1A Receptor [2] came to 1.57 nM.
Take `Cc1ccc2c3c(ccc2n1)OC[C@H](CNCCCN1CCc2ccccc21)O3` [Example 5, 3-(2,3-dihydro-1H-indol-1-yl)-N-{[(2S)-8-methyl-2,3-dihydro[1,4]dioxino[2,3-f]quinolin-2-yl]methyl}propan-1-amine]: the inhibition constant Ki was 0.62 nM on Human 5-HT1A Receptor [1] and 21.1 nM at serotonin transporter. Besides, the concentration for half-maximal inhibition (IC50) at Human 5-HT Transporter was 180 nM. Besides, at Human 5-HT1A Receptor [2], the 50% effective concentration (EC50) came out at 3.44 nM.
With `Cc1ccc2c3c(ccc2n1)OC[C@H](CNCCCN1CCOc2ccccc21)O3` [Example 6, 3-(2,3-dihydro-4H-1,4-benzoxazin-4-yl)-N-{[(2S)-8-methyl-2,3-dihydro[1,4]dioxino[2,3-f]quinolin-2-yl]methyl}propan-1-amine], the values for the inhibitory constant (Ki) at Human 5-HT1A Receptor [1] and on serotonin transporter were 2.58 nM and 40.8 nM, respectively. For the same compound, the EC50 at Human 5-HT1A Receptor [2] was determined as 0.77 nM.
As to `Cc1ccc2c3c(ccc2n1)OC[C@H](CNCCCN1CCCc2cc(F)c(F)cc21)O3` [Example 7, 3-(6,7-difluoro-3,4-dihydroquinolin-1(2H)-yl)-N-{[(2S)-8-methyl-2,3-dihydro[1,4]dioxino[2,3-f]quinolin-2-yl]methyl}propan-1-amine], the inhibitory constant (Ki) at Human 5-HT1A Receptor [1] was 3.73 nM; at serotonin transporter it was 12.3 nM. Also, the IC50 at Human 5-HT Transporter came to 77 nM. Besides, the EC50 at Human 5-HT1A Receptor [2] worked out at 1.63 nM.
For the compound `Cc1ccc2c3c(ccc2n1)OC[C@H](CNCCCN1CCCc2cc(F)ccc21)O3` [Example 8, 3-(6-fluoro-3,4-dihydroquinolin-1(2H)-yl)-N-{[(2S)-8-methyl-2,3-dihydro[1,4]dioxino[2,3-f]quinolin-2-yl]methyl}propan-1-amine], the figures for the inhibition constant (Ki) on Human 5-HT1A Receptor [1] and at serotonin transporter were 1.44 nM and 7.2 nM, respectively. The concentration for half-maximal inhibition (IC50) on Human 5-HT Transporter came out at 76.9 nM. Further, the EC50 at Human 5-HT1A Receptor [2] is 1.48 nM.
For `Cc1ccc2c3c(ccc2n1)OC[C@H](CNCCCN1CCCc2cc(F)cc(F)c21)O3` [Example 9, 3-(6,8-difluoro-3,4-dihydroquinolin-1(2H)-yl)-N-{[(2S)-8-methyl-2,3-dihydro[1,4]dioxino[2,3-f]quinolin-2-yl]methyl}propan-1-amine], the inhibition constant Ki at Human 5-HT1A Receptor [1] came to 1.41 nM; on serotonin transporter it was 27 nM. For the same compound, the EC50 at Human 5-HT1A Receptor [2] was 1.18 nM.
In the case of `Cc1ccc2c3c(ccc2n1)OC[C@H](CNCCCN1CCCc2cc(F)c(Cl)cc21)O3` [Example 10, 3-(7-chloro-6-fluoro-3,4-dihydroquinolin-1(2H)-yl)-N-{[(2S)-8-methyl-2,3-dihydro[1,4]dioxino[2,3-f]quinolin-2-yl]methyl}propan-1-amine], the results for the inhibition constant (Ki) on Human 5-HT1A Receptor [1] and on serotonin transporter were 3.22 nM and 116 nM, respectively. At Human 5-HT1A Receptor [2], the EC50 worked out at 1.95 nM.
The matching figures for `Cc1ccc2c3c(ccc2n1)OC[C@H](CNCCCN1CCCCc2ccccc21)O3` [Example 12, N-{[(2S)-8-methyl-2,3-dihydro[1,4]dioxino[2,3-f]quinolin-2-yl]methyl}-3-(2,3,4,5-tetrahydro-1H-1-benzazepin-1-yl)propan-1-amine]: 0.79 nM, 36.2 nM and 3.06 nM.
The matching figures for `Cc1ccc2c3c(ccc2n1)OC[C@H](CNCCCN(C)c1ccccc1Cl)O3` [Example 13, N-(2-chlorophenyl)-N-methyl-N′-{[(2S)-8-methyl-2,3-dihydro[1,4]dioxino[2,3-f]quinolin-2-yl]methyl}propane-1,3-diamine]: 0.57 nM, 3.5 nM and 2.49 nM.
